The text below walks through data of patent US10398692B2, “Terconazole composition and method” (Curatek Pharmaceuticals Holding, Inc., priority 2006, dated 2019).

The conditions of data set [1]: cited from earlier work.
Data set [2] can be described thus: Solubility of terconazole in water at adjusted pH (Table 1A). Format: physicochemical. Particulars: for solubility: water. The text has this: In a related experiment, the solubility of terconazole in water was increased to about 2.9 percent by weight using acetic acid at pH of about 5.

The structures appear in SMILES notation. ≈ marks a conversion by molar mass, not a printed value.

Take `CC(C)N1CCN(c2ccc(OCC3COC(Cn4cncn4)(c4ccc(Cl)cc4Cl)O3)cc2)CC1` (stereo not drawn) [Terconazole, cis-1-[p[[2-(2,4-dichlorophenyl)-2-(1H-1,2,4-triazol-1-ylmethyl)-1,3-dioxolan-4-yl]methoxy]phenyl]-4-isopropylpiperazine]: the solubility in water result in data set [1] is “about 0.007 percent by weight”. Further, the solubility was 3400 µg/mL (≈ 6.39 mM) in data set [2] (aqueous buffer, pH 4.23 adjusted with HCl); 29400 µg/mL (≈ 55.2 mM) in data set [2] (aqueous buffer, pH 4.99 adjusted with acetic acid); 70 µg/mL (≈ 0.131 mM) in data set [2] (pH 7.1, pH not adjusted). The “solubility of terconazole in water” value in data set [2] (using acetic acid at pH of about 5) is reported as “about 2.9 percent by weight”.
